What is called EC50 is the concentration needed to bring the measured effect to its halfway point.

Molecules are shown by their SMILES.

This experiment addresses T1, Androgen receptor (Homo sapiens, UniProt P10275).
T1 sequence (P10275 whole entry): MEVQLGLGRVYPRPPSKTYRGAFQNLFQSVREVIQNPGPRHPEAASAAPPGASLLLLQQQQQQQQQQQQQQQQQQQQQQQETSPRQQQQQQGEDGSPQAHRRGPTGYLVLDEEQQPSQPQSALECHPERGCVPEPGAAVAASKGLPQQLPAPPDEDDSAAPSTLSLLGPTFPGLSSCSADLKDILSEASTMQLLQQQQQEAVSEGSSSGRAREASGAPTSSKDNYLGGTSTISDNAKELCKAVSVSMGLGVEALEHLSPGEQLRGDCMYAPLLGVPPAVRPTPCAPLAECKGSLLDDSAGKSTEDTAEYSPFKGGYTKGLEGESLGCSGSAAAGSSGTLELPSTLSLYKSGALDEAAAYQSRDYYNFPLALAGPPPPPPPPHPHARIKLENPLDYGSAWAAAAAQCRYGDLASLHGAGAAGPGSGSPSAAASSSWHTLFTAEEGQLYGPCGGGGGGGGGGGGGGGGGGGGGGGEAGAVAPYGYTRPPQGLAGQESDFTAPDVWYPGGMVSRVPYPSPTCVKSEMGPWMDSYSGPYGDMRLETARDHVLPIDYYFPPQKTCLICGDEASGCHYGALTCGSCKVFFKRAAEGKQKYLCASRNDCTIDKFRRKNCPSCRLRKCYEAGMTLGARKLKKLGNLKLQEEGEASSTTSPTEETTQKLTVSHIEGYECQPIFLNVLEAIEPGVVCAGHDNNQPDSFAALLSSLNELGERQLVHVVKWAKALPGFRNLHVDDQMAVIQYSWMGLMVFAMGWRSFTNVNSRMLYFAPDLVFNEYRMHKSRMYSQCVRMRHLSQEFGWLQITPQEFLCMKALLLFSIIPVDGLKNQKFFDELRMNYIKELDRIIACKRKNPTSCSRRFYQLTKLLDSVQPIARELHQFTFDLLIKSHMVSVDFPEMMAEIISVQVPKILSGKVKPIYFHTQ
The experiment in a line: Agonist activity at androgen receptor (unknown origin) expressed in HeLa cells co-expressing PSA-(ARE)4-Luc13 assessed as induction of DHT-induced luciferase activity after […] by luciferase reporter gene assay. A general note: A reporter such as luciferase makes a cellular process visible.
`COc1ccc2c(c1)c(C)c(CCC(=O)O)n2C(=O)c1ccc(Cl)cc1`: the “EC50” value worked out at 0.15 nM.

On to `COc1ccc2c(c1)c(CC(=O)NS(=O)(=O)C(F)(F)F)cn2C(=O)c1ccc(Cl)cc1`, for which the half-maximal effective concentration (EC50) is given as 0.1 nM.

With `COc1ccc2c(c1)c(C)c(CCC(=O)NS(C)(=O)=O)n2C(=O)c1ccc(Cl)cc1`, the “EC50” value worked out at 0.14 nM.

As for `COc1ccc2c(c1)c(CC(=O)O)c(C)n2C(=O)c1ccc(Cl)cc1` [indometacin], the “EC50” value was determined as 0.14 nM.

(Values after BindingDB's records for doi:10.1021/jm3017656 (Vanderbilt University School of Medicine, 2013).)
